Experimental data from patent publication US20110182922A1, “PEPTIDES OF IL1 BETA AND TNF ALPHA AND METHOD OF TREATMENT USING SAME” (VAX CONSULTING, priority 2004, published 2011).
Bridge positions count the residues as written; N and C are the ends. Ends that are not written are not given here.

What was measured:
Format in all cases: in vivo
[1] = tested on: TNFα-dependent septic shock in mice; test: model of endotoxinic shock (LPS with Galactosamine) after preimmunization; conditions: Balb/c mice preimmunized with KLH-coupled peptide, shock on day D50 by LPS with Galactosamine; control KLH alone; p=0.008
Protocol: 4 murine TNFα peptides coupled to the KLH carrier protein, including the cyclized peptide CVSRFAISYQEKVNLLSC (SEQ ID NO:15) called TNFα-6, were tested in a model of endotoxinic shock. For this purpose, Balb/c mice were preimmunized against these peptides on days D0, […], and D40. On day D50, the mice were subjected to shock, i.e. they were injected with LPS with Galactosamine. A control was carried out on mice immunized against KLH alone.
It is noted that all the mice died after two days, except for the group immunized against the TNFα-6 peptide where the mice were protected. The protection conferred by the immunization was very significant (p=0.008).

native mIL1β cytokine = test: ELISA test of serum antibodies against native mIL1β after immunization; set-up: unit not given here; conditions: ELISA on serum day D50; groups of 4 mice, 20 ug peptide coupled to KLH, boosters D20 and D40
Protocol: (§1) 6 groups of 4 mice were immunized against 20 ug of the murine IL1β peptides IRQLHYRLRDEQQKSL (group 1) (SEQ ID NO:11), SFVQGEPSNDKIP (group 2) (SEQ ID NO:12), QYPKKKMEKRFVFNKIEV (group 3) (SEQ ID NO:13), IIDFTMESVSS (group 4) (SEQ ID NO:14), and 20 ug of the murine TNFα peptide KYLDFAESGQVY (group 5) (SEQ ID NO:6) all coupled to KLH. Group 6 corresponds to mice immunized by KLH alone. A booster was administered on days D20 and D40. On day D50 the mice were sacrificed and the antibodies directed against the native mTNFα cytokine and the native mIL1β cytokine in the serums were measured by an ELISA test.

native mTNFα cytokine = test: ELISA test of serum antibodies against native mTNFα after immunization; set-up: unit not given here; conditions: ELISA on serum day D50; groups of 4 mice, 20 ug peptide coupled to KLH, boosters D20 and D40
Protocol: as §1

[2] = tested on: collagen arthritis induced in mice; test: model of collagen arthritis after preimmunization; conditions: DBA1 mice preimmunized with KLH-coupled peptide, collagen in Freund's adjuvant D80 and D95, scored D100-D160; control KLH alone; p=0.0003, ANOVA test
Protocol: 3 murine IL1β peptides coupled to the KLH protein, including the cyclized IL1-6 peptide of sequence YCYISTSQAEHKPVFLGC (SEQ ID NO:16), were tested in a model of collagen arthritis. For this purpose, DBA1 mice were preimmunized against these peptides on days D0, D20, D40, […]. On day D80 the mice were immunized against collagen in Freund's adjuvant, and similarly on day D95. The development of arthritis was monitored between day D100 and day D160: twice weekly, the mice were examined and a score was attributed to them as a function of the state of inflammation of their joints (0=no inflammation, 1=slight inflammation, 2=average inflammation, 3=strong inflammation).

Row | Sequence | survival of mice subjected to septic shock (protection) [1] | Anti-IL1β response Average (native mIL1β cytokine) | Anti-TNFα response Average (native mTNFα cytokine) | clinical score of joint inflammation (protection with respect to control) [2]
1 | CVSRFAISYQEKVNLLSC (disulfide 1-18 (inferred)) [TNFα-6, cyclized murine TNFα peptide] | protected |  |  | 
2 | IRQLHYRLRDEQQKSL [Group 1, murine IL1β peptide 3-18] |  | 1.5 | 0.13 | 
3 | IIDFTMESVSS [Group 4, murine IL1β peptide 142-152] |  | 0.8 | 0.12 | 
4 | KYLDFAESGQVY [Group 5, murine TNFα peptide 140-150] |  | 0.31 | 1.3 | 
5 | YCYISTSQAEHKPVFLGC (disulfide 2-18 (inferred); also: coupled to KLH carrier protein) [IL1β-6, cyclized murine IL1β peptide] |  |  |  | strong protection level
6 | QYPKKKMEKRFVFNKIEV [Group 3, murine IL1β peptide 89-106] |  | 1.6 | 0.18 | 
7 | SFVQGEPSNDKIP [Group 2, murine IL1β peptide 45-57] |  | 1.9 | 0.15 | 
8 | VSRFAISYQEKVNLLS [SEQ ID NO:1, peptide area 80-95 of the murine TNFα cytokine] | capable of blocking TNFα-dependent septic shock in mice |  |  | 
9 | YISTSQAEHKPVFLG [SEQ ID NO:3, peptide area 121-135 of the murine IL1β cytokine] |  |  |  | capable of blocking collagen arthritis induced in mice
